Tested on: cGMP in rat primary neurons
Experiment: cGMP neuronal cell-based assay (Example 3)
Conditions: Primary neuron; rat primary hippocampal neurons; 30 μM DETA-NO; cGMP by LC-MS/MS; 50% of high control (10 μM Compound Y); read-out: Abs EC50
Procedure: Rat primary neurons were isolated from fetuses of 18-day pregnant Sprague-Dawley females. The fetuses were collected in Hanks' balanced salt solution (HBSS) and brains were rapidly removed. The cerebral hippocampi were isolated and mechanically fragmented. Further tissue digestion was performed with 0.25% (wt/vol) trypsin solution in HBSS without Ca2+ and Mg2+ for 15 min at 37° C. After trypsination, cells were washed and resuspended in neurobasal medium supplemented with 0.5 mM L-glutamine, 12.5 uM glutamic acid, 2% B-27 and 100 U/mL penicillin, and 100 μg/mL streptomycin. Cells were plated at a density of 4×10^4 cells/well in a poly-D-lysine coated 384-well flat clear-bottom plate (Corning Cat No 354662). Cells were incubated 6-7 days at 37° C. in a humidified chamber with 5% CO2. Media was removed and cells were washed 1× with HBSS containing Ca2+ and Mg2+, and replaced with 40 uL HBSS containing 0.5 mM IBMX, and incubated for 15 minutes at 37° C. 10 uL of a 5× stock of test compounds with diethylenetriamine NONOate (DETA-NO) was added. Final concentration of DETA-NO was 30 μM. Cells were incubated for 20 min at 37° C. Medium was removed, 50 uL of ice-cold 10% acetic acid was added, and incubated for 60 minutes at 4° C. Following centrifugation at 4° C. for 5 minutes at 1000×g to pellet cell debris, the supernatant was aspirated to a clean plate and the samples were analyzed for cGMP content. cGMP concentrations were determined from each sample using LC-MS/MS.
Data were normalized to a high control using the following equation: 100*(Sample−Low Control)/(High Control−Low Control), where the low control is the average of 15 samples treated with 1% DMSO, and the high control is the average of 15 samples treated with 10 μM a known sGC stimulator Compound Y. Data were fit using a 4-parameter fit (log(agonist) vs. response—variable slope) using GraphPad Prism Software v.5. n=2 for all compounds. The Absolute EC50 was interpolated from the curve fit and is defined as the concentration at which a given compound elicits 50% of the high control response. Compounds failing to elicit a minimum response of 50% are reported as >30 μM. For compounds run in duplicate or n higher than 2, the result herein given is the geometric mean of the several results obtained.

Row | Structure (SMILES) | EC50
1 | Fc1ccccc1Cc1nc(-c2nc(C(F)F)n[nH]2)cn2ccnc12 [Compound I-14, 8-(2-Fluorobenzyl)-6-(3-(difluoromethyl)-1H-1,2,4-triazol-5-yl)imidazo[1,2-a]pyrazine] | ≤ 0.1 µM
2 | Fc1cccc(Cc2nc(-c3nc(C(F)F)n[nH]3)cn3ccnc23)c1F [Compound I-11, 8-(2,3-Difluorobenzyl)-6-(3-(difluoromethyl)-1H-1,2,4-triazol-5-yl)imidazo[1,2-a]pyrazine] | ≤ 0.1 µM
3 | Fc1ccccc1Cc1nc(-c2nc(C(F)(F)F)n[nH]2)cn2ncnc12 [Compound I-16, 8-(2-Fluorobenzyl)-6-(3-(trifluoromethyl)-1H-1,2,4-triazol-5-yl)-[1,2,4]triazolo[1,5-a]pyrazine] | ≤ 0.1 µM

Next, values leading:

Row | EC50 | Structure (SMILES)
4 | ≤ 0.1 µM | Fc1cccc(Cc2nc(-c3nc(C(F)(F)F)n[nH]3)cn3ccnc23)c1F [Compound I-10, 8-(2,3-Difluorobenzyl)-6-(3-(trifluoromethyl)-1H-1,2,4-triazol-5-yl)imidazo[1,2-a]pyrazine]
5 | ≤ 0.1 µM | Fc1ccccc1Cc1nc(-c2nc(C(F)(F)F)n[nH]2)cn2ccnc12 [Compound I-1, 8-(2-fluorobenzyl)-6-(3-(trifluoromethyl)-1H-1,2,4-triazol-5-yl)imidazo[1,2-a]pyrazine]
6 | ≤ 0.1 µM | Fc1cccc(Cc2nc(-c3nc(C(F)(F)F)n[nH]3)cn3ccnc23)c1 [Compound I-2, 8-(3-Fluorobenzyl)-6-(3-(trifluoromethyl)-1H-1,2,4-triazol-5-yl)imidazo[1,2-a]pyrazine]
7 | ≤ 0.1 µM | Fc1cccc(Cc2nc(-c3nc(C(F)F)n[nH]3)cn3ccnc23)c1 [Compound I-3, 6-(3-(Difluoromethyl)-1H-1,2,4-triazol-5-yl)-8-(3-fluorobenzyl)imidazo[1,2-a]pyrazine]
